Patent US12533428B2, “Multimodal fluorine-CY3/5/7-DOTA-hapten compositions, diagnostics, fluorescence guided surgery and radioimmunotherapy” (Memorial Sloan Kettering Cancer Center, priority 2019, dated 2026)

Tests used:
SW-1222 tumor = assay: In vivo tumor uptake using 3-step PRIT; parameters: species or system mice; conditions: for Tumor Uptake: SW-1222 tumor-bearing mice pretreated with anti-GPA33/anti-DOTA BsAb and DOTA-dendrimer clearing agent, in %ID/g
Procedure: The in vivo tumor uptake of [F]Cy3D [^177Lu] ([^177Lu]-Compound 6) was analyzed in tumor-bearing (SW-1222) mice.

[1] = In vivo biodistribution and pharmacokinetics in tumor free mice (gamma counter)
Procedure: The in vivo biodistribution and pharmacokinetics of ([^177Lu]-Compound 6) and BnDOTA[^177Lu] was investigated in tumor free mice. See FIGS. 17A-17B and Tables 2 and 3. Mice were dosed with radiolabeled probes at t=0 and sacrificed at various time points. Organs were harvested and activity was counted by gamma counter. Tables 2-3 show the serial biodistribution data for the analyzed organs of Compound 6 and Compound 2, respectively. FIG. 17A overlays the time course in activity in either vital tissues (left panel) or the blood (right panel) between the two probes.

With `CC1(C)C(=CC=CC2=[N+](CCCCCC(=O)NCC[N+](C)(C)C[B-](F)(F)F)c3ccc(S(=O)(=O)[O-])cc3C2(C)C)N(CCCCCC(=O)Nc2ccc(CC3CN(CC(=O)[O-])CCN(CC(=O)[O-])CCN(CC(=O)[O-])CCN3CC(=O)[O-])cc2)c2ccc(S(=O)(=O)[O-])cc21.[177Lu+3]` (stereo not drawn) [[^177Lu]-Compound 6, [F]Cy3D[^177Lu]] the “Tumor Uptake” value (SW-1222 tumor; 1 h) was 25.24 ± 4.49, the “Tumor Uptake” value (SW-1222 tumor; 4 h) was 21.93 ± 2.25 and the “Tumor Uptake” value (SW-1222 tumor; 24 h) was 23.17 ± 4.83. For the same compound, the “Tumor Uptake” value (SW-1222 tumor; 48 h) was 22.13 ± 5.37, the “Binding to BsAb-treated tumor in vivo compared to the standard BnDOTA[^177Lu]” value (SW-1222 tumor; SW-1222 tumor-bearing mice, 3-step PRIT) was “equal specificity and efficacy” and the Uptake ([1]; Blood, 1 h after dosing) was 0.122 ± 0.005 % injected Dose/gram. For the same compound, the Uptake ([1]; Blood, 2 h after dosing) was 0.034 ± 0.005 % injected Dose/gram, the Uptake ([1]; Blood, 4 h after dosing) was 0.014 ± 0.001 % injected Dose/gram and the Uptake ([1]; Blood, 24 h after dosing) was 0.004 ± 0.002 % injected Dose/gram. For the same compound, the Uptake ([1]; Blood, 48 h after dosing) was 0.003 ± 0 % injected Dose/gram, the Uptake ([1]; Bone, 1 h after dosing) was 0.065 ± 0.009 % injected Dose/gram and the Uptake ([1]; Bone, 2 h after dosing) was 0.043 ± 0.007 % injected Dose/gram. The Uptake ([1]; Bone, 4 h after dosing) was 0.038 ± 0.012 % injected Dose/gram, the Uptake ([1]; Bone, 24 h after dosing) was 0.019 ± 0.003 % injected Dose/gram and the Uptake ([1]; Bone, 48 h after dosing) was 0.021 ± 0.001 % injected Dose/gram. It also gave an Uptake ([1]; Brain, 1 h after dosing) of 0.007 ± 0.001 % injected Dose/gram, an Uptake ([1]; Brain, 2 h after dosing) of 0.014 ± 0.01 % injected Dose/gram and an Uptake ([1]; Brain, 4 h after dosing) of 0.004 ± 0 % injected Dose/gram. The Uptake ([1]; Brain, 24 h after dosing) was 0.001 ± 0.001 % injected Dose/gram, the Uptake ([1]; Brain, 48 h after dosing) was 0.001 ± 0 % injected Dose/gram and the “Biodistribution, comparison of the two probes” value ([1]; FIG. 17B) was “comparable biodistribution”. It also gave an Uptake ([1]; Heart, 1 h after dosing) of 0.056 ± 0.006 % injected Dose/gram, an Uptake ([1]; Heart, 2 h after dosing) of 0.027 ± 0.004 % injected Dose/gram and an Uptake ([1]; Heart, 4 h after dosing) of 0.017 ± 0 % injected Dose/gram. It also gave an Uptake ([1]; Heart, 24 h after dosing) of 0.008 ± 0.006 % injected Dose/gram, an Uptake ([1]; Heart, 48 h after dosing) of 0.009 ± 0 % injected Dose/gram and an Uptake ([1]; Kidneys, 1 h after dosing) of 1.021 ± 0.096 % injected Dose/gram. For the same compound, the Uptake ([1]; Kidneys, 2 h after dosing) was 1.147 ± 0.184 % injected Dose/gram, the Uptake ([1]; Kidneys, 4 h after dosing) was 0.989 ± 0.1 % injected Dose/gram and the Uptake ([1]; Kidneys, 24 h after dosing) was 0.66 ± 0.07 % injected Dose/gram. It also gave an Uptake ([1]; Kidneys, 48 h after dosing) of 0.5 ± 0.05 % injected Dose/gram, an Uptake ([1]; Lg. Intestine, 1 h after dosing) of 0.046 ± 0.009 % injected Dose/gram and an Uptake ([1]; Lg. Intestine, 2 h after dosing) of 2.577 ± 0.409 % injected Dose/gram. For the same compound, the Uptake ([1]; Lg. Intestine, 4 h after dosing) was 2.356 ± 1.032 % injected Dose/gram, the Uptake ([1]; Lg. Intestine, 24 h after dosing) was 0.047 ± 0.016 % injected Dose/gram and the Uptake ([1]; Lg. Intestine, 48 h after dosing) was 0.035 ± 0.021 % injected Dose/gram. The Uptake ([1]; Liver, 1 h after dosing) was 0.119 ± 0.015 % injected Dose/gram, the Uptake ([1]; Liver, 2 h after dosing) was 0.12 ± 0.025 % injected Dose/gram and the Uptake ([1]; Liver, 4 h after dosing) was 0.088 ± 0.009 % injected Dose/gram. For the same compound, the Uptake ([1]; Liver, 24 h after dosing) was 0.063 ± 0.007 % injected Dose/gram, the Uptake ([1]; Liver, 48 h after dosing) was 0.052 ± 0.007 % injected Dose/gram and the Uptake ([1]; Lungs, 1 h after dosing) was 0.142 ± 0.017 % injected Dose/gram. The Uptake ([1]; Lungs, 2 h after dosing) was 0.071 ± 0.01 % injected Dose/gram, the Uptake ([1]; Lungs, 4 h after dosing) was 0.041 ± 0.004 % injected Dose/gram and the Uptake ([1]; Lungs, 24 h after dosing) was 0.023 ± 0.005 % injected Dose/gram. It also gave an Uptake ([1]; Lungs, 48 h after dosing) of 0.017 ± 0.001 % injected Dose/gram, an Uptake ([1]; Muscle, 1 h after dosing) of 0.04 ± 0.009 % injected Dose/gram and an Uptake ([1]; Muscle, 2 h after dosing) of 0.032 ± 0.014 % injected Dose/gram. The Uptake ([1]; Muscle, 4 h after dosing) was 0.023 ± 0.013 % injected Dose/gram, the Uptake ([1]; Muscle, 24 h after dosing) was 0.008 ± 0.003 % injected Dose/gram and the Uptake ([1]; Muscle, 48 h after dosing) was 0.007 ± 0 % injected Dose/gram. For the same compound, the Uptake ([1]; Sm. Intestine, 1 h after dosing) was 0.914 ± 0.311 % injected Dose/gram, the Uptake ([1]; Sm. Intestine, 2 h after dosing) was 0.958 ± 0.379 % injected Dose/gram and the Uptake ([1]; Sm. Intestine, 4 h after dosing) was 0.169 ± 0.258 % injected Dose/gram. The Uptake ([1]; Sm. Intestine, 24 h after dosing) was 0.022 ± 0.007 % injected Dose/gram, the Uptake ([1]; Sm. Intestine, 48 h after dosing) was 0.016 ± 0.003 % injected Dose/gram and the Uptake ([1]; Spleen, 1 h after dosing) was 0.06 ± 0.008 % injected Dose/gram. It also gave an Uptake ([1]; Spleen, 2 h after dosing) of 0.048 ± 0.021 % injected Dose/gram, an Uptake ([1]; Spleen, 4 h after dosing) of 0.032 ± 0.004 % injected Dose/gram and an Uptake ([1]; Spleen, 24 h after dosing) of 0.029 ± 0.002 % injected Dose/gram. The Uptake ([1]; Spleen, 48 h after dosing) was 0.022 ± 0.001 % injected Dose/gram, the Uptake ([1]; Stomach, 1 h after dosing) was 0.734 ± 1.363 % injected Dose/gram and the Uptake ([1]; Stomach, 2 h after dosing) was 0.985 ± 0.861 % injected Dose/gram. The Uptake ([1]; Stomach, 4 h after dosing) was 0.186 ± 0.256 % injected Dose/gram, the Uptake ([1]; Stomach, 24 h after dosing) was 0.02 ± 0.011 % injected Dose/gram and the Uptake ([1]; Stomach, 48 h after dosing) was 0.019 ± 0 % injected Dose/gram. For the same compound, the Uptake ([1]; Tail, 1 h after dosing) was 0.279 ± 0.079 % injected Dose/gram, the Uptake ([1]; Tail, 2 h after dosing) was 0.237 ± 0.128 % injected Dose/gram and the Uptake ([1]; Tail, 4 h after dosing) was 0.154 ± 0.102 % injected Dose/gram. For the same compound, the Uptake ([1]; Tail, 24 h after dosing) was 0.079 ± 0.026 % injected Dose/gram, the Uptake ([1]; Tail, 48 h after dosing) was 0.018 ± 0.016 % injected Dose/gram and the “Clearance (time course of activity in vital tissues and blood)” value ([1]; comparison of the two probes) was “cleared at similar rates”.
